Results reported in ChEMBL document CHEMBL3393036, “Tetra-substituted pyridinylimidazoles as dual inhibitors of p38α mitogen-activated protein kinase and c-Jun N-terminal kinase 3 for potential treatment of neurodegenerative diseases” (J Med Chem, 2015).
Values after ≈ are worked out from the molar mass of the structure shown.

Organism: Homo sapiens
Test: Selectivity ratio of IC50 for JNK3 (unknown origin) to IC50 for p38alpha (unknown origin)
Conditions: not given

SMILES | Ratio IC50
COC(Cn1c(S/C=C\C(=O)O)nc(-c2ccc(F)cc2)c1-c1ccnc(NC2CC2)c1)OC | 0.1
CC(=O)Nc1cc(-c2c(-c3ccc(F)cc3)nc(SC3CCC(C(=O)O)CC3O)n2C)ccn1 (stereo not given) | 0.2
CC(=O)Nc1cc(-c2c(-c3ccc(F)cc3)nc(S/C=C\C(=O)O)n2C2CCC2)ccn1 | 0.2
CCC(C)Nc1cc(-c2c(-c3ccc(F)cc3)nc(S/C=C\C(=O)O)n2CC(OC)OC)ccn1 (stereo not given) | 0.8
CC(=O)Nc1cc(-c2c(-c3ccc(F)cc3)nc(S/C=C/C(=O)O)n2CC2CC2)ccn1 | 0.8
O=C(O)/C=C\Sc1nc(-c2ccc(F)cc2)c(-c2ccnc(Nc3ccccc3)c2)n1CC1CC1 | 0.2
COC(=O)CSc1nc(-c2ccc(F)cc2)c(-c2ccnc(NC(C)=O)c2)n1C | 0.7
CC(=O)Nc1cc(-c2c(-c3ccc(F)cc3)nc(S/C=C\C(=O)O)n2CC2CC2)ccn1 | 0.6
CC(=O)Nc1cc(-c2c(-c3ccc(F)cc3)nc(SCCC(=O)O)n2C)ccn1 | 0.4
CCNC(=O)N1CCC(Nc2cc(-c3c(-c4ccc(F)cc4)nc(S/C=C\C(=O)O)n3C)ccn2)CC1 | 0.4
CC(=O)Nc1cc(-c2c(-c3ccc(F)cc3)nc(S/C=C\C(=O)O)n2C)ccn1 | 0.3
CCOC(=O)/C=C/Sc1nc(-c2ccc(F)cc2)c(-c2ccnc(NC(C)=O)c2)n1CC(OC)OC | 1
CC(=O)Nc1cc(-c2c(-c3ccc(F)cc3)nc(SCC(=O)N(C)C)n2C)ccn1 | 8.5
CCOC(=O)/C=C/Sc1nc(-c2ccc(F)cc2)c(-c2ccnc(NC(C)=O)c2)n1C1CC1 | 1.5
COC(Cn1c(SCCC(=O)O)nc(-c2ccc(F)cc2)c1-c1ccnc(NC(C)=O)c1)OC | 0.2
COC(Cn1c(S/C=C\C(=O)O)nc(-c2ccc(F)cc2)c1-c1ccnc(NC(C)=O)c1)OC | 0.1
CC(=O)Nc1cc(-c2c(-c3ccc(F)cc3)nc(S/C=C\C(=O)O)n2CC2CCCCC2)ccn1 | 0.6
CC(=O)CSc1nc(-c2ccc(F)cc2)c(-c2ccnc(NC(C)=O)c2)n1C | 7.1
O=C(O)/C=C/Sc1nc(-c2ccc(F)cc2)c(-c2ccnc(Nc3ccccc3)c2)n1CC1CC1 | 1.2
CC(=O)Nc1cc(-c2c(-c3ccc(F)cc3)nc(S/C=C\C(=O)O)n2CC(O)CO)ccn1 (stereo not given) | 0.3
O=C(O)/C=C\Sc1nc(-c2ccc(F)cc2)c(-c2ccnc(Nc3ccccc3)c2)[nH]1 | 0.5
CC(=O)Nc1cc(-c2c(-c3ccc(F)cc3)nc(SCC(=O)O)n2C)ccn1 | 0.2
CC(=O)Nc1cc(-c2c(-c3ccc(F)cc3)nc(S/C=C\C(=O)O)n2C2CCCC2)ccn1 | 0.3
CCOC(=O)/C=C/Sc1nc(-c2ccc(F)cc2)c(-c2ccnc(NC(C)=O)c2)n1CC1CC1 | 1.8
COC(Cn1c(SCC#N)nc(-c2ccc(F)cc2)c1-c1ccnc(F)c1)OC | 6.6
COC(Cn1c(SCC#N)nc(-c2ccc(F)cc2)c1-c1ccnc(NC2CC2)c1)OC | 0.5
CC(=O)Nc1cc(-c2c(-c3ccc(F)cc3)nc(SC3CCC(C(=O)O)CC3O)n2CC2CCCO2)ccn1 (racemic) | 4.3
CC(=O)Nc1cc(-c2c(-c3ccc(F)cc3)nc(SC3CCC(C(=O)O)CC3O)n2C2CCCCC2)ccn1 (stereo not given) | 0.2
CCOC(=O)/C=C\Sc1nc(-c2ccc(F)cc2)c(-c2ccnc(Nc3ccccc3)c2)[nH]1 | 0.5

Target: Mitogen-activated protein kinase 10 (Homo sapiens, UniProt P53779)
Test: Inhibition of JNK3 (unknown origin) assessed as phosphorylation of ATF-2 by ELISA
Conditions: not given

Mitogen-activated protein kinase 10, sequence (P53779 whole entry): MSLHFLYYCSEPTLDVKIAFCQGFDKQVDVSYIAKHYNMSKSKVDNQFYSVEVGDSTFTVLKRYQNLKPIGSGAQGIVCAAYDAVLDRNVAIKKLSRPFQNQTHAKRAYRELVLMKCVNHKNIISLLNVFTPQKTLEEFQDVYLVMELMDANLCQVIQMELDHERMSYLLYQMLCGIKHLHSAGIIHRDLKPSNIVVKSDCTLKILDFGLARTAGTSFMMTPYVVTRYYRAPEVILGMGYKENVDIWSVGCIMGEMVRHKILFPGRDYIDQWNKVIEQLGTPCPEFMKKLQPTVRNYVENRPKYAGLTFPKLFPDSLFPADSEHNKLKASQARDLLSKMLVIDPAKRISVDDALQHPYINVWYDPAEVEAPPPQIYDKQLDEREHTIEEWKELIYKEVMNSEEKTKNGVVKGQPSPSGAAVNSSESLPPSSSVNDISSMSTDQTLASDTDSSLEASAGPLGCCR

SMILES | IC50 [nM]
COC(Cn1c(S/C=C\C(=O)O)nc(-c2ccc(F)cc2)c1-c1ccnc(NC2CC2)c1)OC | 12
CC(=O)Nc1cc(-c2c(-c3ccc(F)cc3)nc(SC3CCC(C(=O)O)CC3O)n2C)ccn1 (stereo not given) | 180
CC(=O)Nc1cc(-c2c(-c3ccc(F)cc3)nc(S/C=C\C(=O)O)n2C2CCC2)ccn1 | 47
CCC(C)Nc1cc(-c2c(-c3ccc(F)cc3)nc(S/C=C\C(=O)O)n2CC(OC)OC)ccn1 (stereo not given) | 26
CC(=O)Nc1cc(-c2c(-c3ccc(F)cc3)nc(S/C=C/C(=O)O)n2CC2CC2)ccn1 | 170
O=C(O)/C=C\Sc1nc(-c2ccc(F)cc2)c(-c2ccnc(Nc3ccccc3)c2)n1CC1CC1 | 54
COC(=O)CSc1nc(-c2ccc(F)cc2)c(-c2ccnc(NC(C)=O)c2)n1C | 199
CC(=O)Nc1cc(-c2c(-c3ccc(F)cc3)nc(S/C=C\C(=O)O)n2CC2CC2)ccn1 | 18
CC(=O)Nc1cc(-c2c(-c3ccc(F)cc3)nc(SCCC(=O)O)n2C)ccn1 | 91
CCNC(=O)N1CCC(Nc2cc(-c3c(-c4ccc(F)cc4)nc(S/C=C\C(=O)O)n3C)ccn2)CC1 | 61
CC(=O)Nc1cc(-c2c(-c3ccc(F)cc3)nc(S/C=C\C(=O)O)n2C)ccn1 | 55
CCOC(=O)/C=C/Sc1nc(-c2ccc(F)cc2)c(-c2ccnc(NC(C)=O)c2)n1CC(OC)OC | 2170
CC(=O)Nc1cc(-c2c(-c3ccc(F)cc3)nc(SCC(=O)N(C)C)n2C)ccn1 | 1190
CCOC(=O)/C=C/Sc1nc(-c2ccc(F)cc2)c(-c2ccnc(NC(C)=O)c2)n1C1CC1 | 678
COC(Cn1c(SCCC(=O)O)nc(-c2ccc(F)cc2)c1-c1ccnc(NC(C)=O)c1)OC | 269
COC(Cn1c(S/C=C\C(=O)O)nc(-c2ccc(F)cc2)c1-c1ccnc(NC(C)=O)c1)OC | 33
CC(=O)Nc1cc(-c2c(-c3ccc(F)cc3)nc(S/C=C\C(=O)O)n2CC2CCCCC2)ccn1 | 25
CC(=O)CSc1nc(-c2ccc(F)cc2)c(-c2ccnc(NC(C)=O)c2)n1C | 255
O=C(O)/C=C/Sc1nc(-c2ccc(F)cc2)c(-c2ccnc(Nc3ccccc3)c2)n1CC1CC1 | 213
CC(=O)Nc1cc(-c2c(-c3ccc(F)cc3)nc(S/C=C\C(=O)O)n2CC(O)CO)ccn1 (stereo not given) | 226
O=C(O)/C=C\Sc1nc(-c2ccc(F)cc2)c(-c2ccnc(Nc3ccccc3)c2)[nH]1 | 17
CC(=O)Nc1cc(-c2c(-c3ccc(F)cc3)nc(SCC(=O)O)n2C)ccn1 | 266
CC(=O)Nc1cc(-c2c(-c3ccc(F)cc3)nc(S/C=C\C(=O)O)n2C2CCCC2)ccn1 | 45
CCOC(=O)/C=C/Sc1nc(-c2ccc(F)cc2)c(-c2ccnc(NC(C)=O)c2)n1CC1CC1 | 1220
COC(Cn1c(SCC#N)nc(-c2ccc(F)cc2)c1-c1ccnc(F)c1)OC | 4220
COC(Cn1c(SCC#N)nc(-c2ccc(F)cc2)c1-c1ccnc(NC2CC2)c1)OC | 79
CC(=O)Nc1cc(-c2c(-c3ccc(F)cc3)nc(SC3CCC(C(=O)O)CC3O)n2CC2CCCO2)ccn1 (racemic) | 2630
CC(=O)Nc1cc(-c2c(-c3ccc(F)cc3)nc(SC3CCC(C(=O)O)CC3O)n2C2CCCCC2)ccn1 (stereo not given) | 79
CCOC(=O)/C=C\Sc1nc(-c2ccc(F)cc2)c(-c2ccnc(Nc3ccccc3)c2)[nH]1 | 80

Target: Mitogen-activated protein kinase 14 (Homo sapiens, UniProt Q16539)
Test: Inhibition of p38alpha (unknown origin) assessed as phosphorylation of ATF-2 by ELISA
Conditions: not given

Mitogen-activated protein kinase 14, sequence (Q16539 whole entry): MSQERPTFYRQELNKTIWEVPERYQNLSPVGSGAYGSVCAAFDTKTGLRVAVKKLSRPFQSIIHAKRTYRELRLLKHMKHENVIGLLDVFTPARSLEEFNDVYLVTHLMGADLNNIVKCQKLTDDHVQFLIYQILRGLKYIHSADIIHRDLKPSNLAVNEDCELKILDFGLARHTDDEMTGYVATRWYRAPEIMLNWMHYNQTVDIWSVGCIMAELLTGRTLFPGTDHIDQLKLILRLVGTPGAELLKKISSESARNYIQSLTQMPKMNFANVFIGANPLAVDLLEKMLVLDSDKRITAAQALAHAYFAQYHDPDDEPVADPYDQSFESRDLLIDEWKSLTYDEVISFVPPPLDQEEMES

SMILES | IC50 [nM]
COC(Cn1c(S/C=C\C(=O)O)nc(-c2ccc(F)cc2)c1-c1ccnc(NC2CC2)c1)OC | 128
CC(=O)Nc1cc(-c2c(-c3ccc(F)cc3)nc(SC3CCC(C(=O)O)CC3O)n2C)ccn1 (stereo not given) | 764
CC(=O)Nc1cc(-c2c(-c3ccc(F)cc3)nc(S/C=C\C(=O)O)n2C2CCC2)ccn1 | 211
CCC(C)Nc1cc(-c2c(-c3ccc(F)cc3)nc(S/C=C\C(=O)O)n2CC(OC)OC)ccn1 (stereo not given) | 34
CC(=O)Nc1cc(-c2c(-c3ccc(F)cc3)nc(S/C=C/C(=O)O)n2CC2CC2)ccn1 | 208
O=C(O)/C=C\Sc1nc(-c2ccc(F)cc2)c(-c2ccnc(Nc3ccccc3)c2)n1CC1CC1 | 354
COC(=O)CSc1nc(-c2ccc(F)cc2)c(-c2ccnc(NC(C)=O)c2)n1C | 297
CC(=O)Nc1cc(-c2c(-c3ccc(F)cc3)nc(S/C=C\C(=O)O)n2CC2CC2)ccn1 | 30
CC(=O)Nc1cc(-c2c(-c3ccc(F)cc3)nc(SCCC(=O)O)n2C)ccn1 | 246
CCNC(=O)N1CCC(Nc2cc(-c3c(-c4ccc(F)cc4)nc(S/C=C\C(=O)O)n3C)ccn2)CC1 | 146
CC(=O)Nc1cc(-c2c(-c3ccc(F)cc3)nc(S/C=C\C(=O)O)n2C)ccn1 | 191
CCOC(=O)/C=C/Sc1nc(-c2ccc(F)cc2)c(-c2ccnc(NC(C)=O)c2)n1CC(OC)OC | 2180
CC(=O)Nc1cc(-c2c(-c3ccc(F)cc3)nc(SCC(=O)N(C)C)n2C)ccn1 | 140
CCOC(=O)/C=C/Sc1nc(-c2ccc(F)cc2)c(-c2ccnc(NC(C)=O)c2)n1C1CC1 | 451
COC(Cn1c(SCCC(=O)O)nc(-c2ccc(F)cc2)c1-c1ccnc(NC(C)=O)c1)OC | 1700
COC(Cn1c(S/C=C\C(=O)O)nc(-c2ccc(F)cc2)c1-c1ccnc(NC(C)=O)c1)OC | 335
CC(=O)Nc1cc(-c2c(-c3ccc(F)cc3)nc(S/C=C\C(=O)O)n2CC2CCCCC2)ccn1 | 39
CC(=O)CSc1nc(-c2ccc(F)cc2)c(-c2ccnc(NC(C)=O)c2)n1C | 36
O=C(O)/C=C/Sc1nc(-c2ccc(F)cc2)c(-c2ccnc(Nc3ccccc3)c2)n1CC1CC1 | 181
CC(=O)Nc1cc(-c2c(-c3ccc(F)cc3)nc(S/C=C\C(=O)O)n2CC(O)CO)ccn1 (stereo not given) | 723
O=C(O)/C=C\Sc1nc(-c2ccc(F)cc2)c(-c2ccnc(Nc3ccccc3)c2)[nH]1 | 36
CC(=O)Nc1cc(-c2c(-c3ccc(F)cc3)nc(SCC(=O)O)n2C)ccn1 | 1670
CC(=O)Nc1cc(-c2c(-c3ccc(F)cc3)nc(S/C=C\C(=O)O)n2C2CCCC2)ccn1 | 164
CCOC(=O)/C=C/Sc1nc(-c2ccc(F)cc2)c(-c2ccnc(NC(C)=O)c2)n1CC1CC1 | 655
COC(Cn1c(SCC#N)nc(-c2ccc(F)cc2)c1-c1ccnc(F)c1)OC | 642
COC(Cn1c(SCC#N)nc(-c2ccc(F)cc2)c1-c1ccnc(NC2CC2)c1)OC | 153
CC(=O)Nc1cc(-c2c(-c3ccc(F)cc3)nc(SC3CCC(C(=O)O)CC3O)n2CC2CCCO2)ccn1 (racemic) | 612
CC(=O)Nc1cc(-c2c(-c3ccc(F)cc3)nc(SC3CCC(C(=O)O)CC3O)n2C2CCCCC2)ccn1 (stereo not given) | 416
CCOC(=O)/C=C\Sc1nc(-c2ccc(F)cc2)c(-c2ccnc(Nc3ccccc3)c2)[nH]1 | 146

System: not listed separately
Test: Metabolic stability in human liver microsomes assessed as compound remaining after 240 mins by LC-MS/MS analysis
Type: ADME
Conditions: read-out: Stability

SMILES | remaining at 4 h [%]
CCC(C)Nc1cc(-c2c(-c3ccc(F)cc3)nc(S/C=C\C(=O)O)n2CC(OC)OC)ccn1 (stereo not given) | 56
CC(=O)Nc1cc(-c2c(-c3ccc(F)cc3)nc(S/C=C\C(=O)O)n2CC2CC2)ccn1 | 70

System: not listed separately
Test: Solubility in aqueous PBS-buffer at pH 7.4
Type: physicochemical
Conditions: not given

SMILES | solubility [µg/mL]
CCC(C)Nc1cc(-c2c(-c3ccc(F)cc3)nc(S/C=C\C(=O)O)n2CC(OC)OC)ccn1 (stereo not given) | 930 (≈ 1860 µM)
CC(=O)Nc1cc(-c2c(-c3ccc(F)cc3)nc(S/C=C\C(=O)O)n2CC2CC2)ccn1 | 1200 (≈ 2650 µM)

System: U2OS
Test: Cytotoxicity against human U2OS cells assessed as morphology up to 50 uM by DAPI staining assay
Type: cell-based
Conditions: not given

SMILES | Activity
CCC(C)Nc1cc(-c2c(-c3ccc(F)cc3)nc(S/C=C\C(=O)O)n2CC(OC)OC)ccn1 (stereo not given) | Non-toxic
CC(=O)Nc1cc(-c2c(-c3ccc(F)cc3)nc(S/C=C\C(=O)O)n2CC2CC2)ccn1 | Non-toxic
O=C(O)/C=C\Sc1nc(-c2ccc(F)cc2)c(-c2ccnc(Nc3ccccc3)c2)[nH]1 | Non-toxic
COC(Cn1c(SCC#N)nc(-c2ccc(F)cc2)c1-c1ccnc(NC2CC2)c1)OC | Non-toxic
